From patent publication US9708311B2, “Benzimidazole derivatives as EP4 antagonists” (BAYER PHARMA AKTIENGESELLSCHAFT, priority 2012, dated 2017) come the findings set out here.

pIC50: −log10 of the molar value.

human EP4 receptor, sequence (P35408 whole entry): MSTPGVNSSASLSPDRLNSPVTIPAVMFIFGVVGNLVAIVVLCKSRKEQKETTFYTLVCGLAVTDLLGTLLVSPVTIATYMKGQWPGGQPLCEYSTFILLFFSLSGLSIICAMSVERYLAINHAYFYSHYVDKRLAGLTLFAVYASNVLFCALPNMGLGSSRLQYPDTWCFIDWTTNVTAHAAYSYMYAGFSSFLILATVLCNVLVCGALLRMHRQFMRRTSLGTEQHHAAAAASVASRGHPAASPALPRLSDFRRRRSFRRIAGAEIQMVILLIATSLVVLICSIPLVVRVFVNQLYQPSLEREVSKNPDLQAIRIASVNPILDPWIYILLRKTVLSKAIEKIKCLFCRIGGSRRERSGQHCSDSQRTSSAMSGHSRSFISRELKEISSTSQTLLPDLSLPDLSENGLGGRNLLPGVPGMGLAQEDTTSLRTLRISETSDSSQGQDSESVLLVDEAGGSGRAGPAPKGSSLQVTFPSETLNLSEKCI

The assay has as its target human EP4 receptor (Homo sapiens (Human), UniProt P35408). Put plainly: Test for antagonism of the human EP4 receptor signal (cAMP HTRF). The format is cell-based. The settings on record: cells expressing hEP4, PGE2 at EC80 (0.4 nM), cAMP TR-FRET; read-out: Antagonism hEP4 IC50. From the text: The binding of the agonist prostaglandin E2 (PGE2) to the EP4 subtype of human hPGE2-R (hEP4-R) induces the activation of membrane-bound adenylate cyclases and thus the formation of cAMP. In the presence of the phosphodiesterase inhibitor IBMX, this cAMP accumulates intracellularly and is employed in a competitive detection procedure after cell lysis. In this procedure, it competes with a fluorescence-labelled cAMP (cAMP-d2) for binding to an Eu cryptate-labelled anti-cAMP antibody. In the absence of cellular cAMP, a complex is formed between the Eu cryptate-labelled anti-cAMP antibody and the cAMP-d2 molecule, which after excitation at 337 nm makes possible an energy transfer based on FRET (fluorescence resonance energy transfer) to the cAMP-d2 tracer and leads to a long-lasting fluorescence signal (emission at 665 and 620 nm). This signal is time-resolved, i.e. measured in a suitable measuring apparatus after decay of the background fluorescence (time resolved; TR-FRET). The wave ratio determination (emission 665 nm/emission 620 nm*10000) moreover makes it possible to standardize individual measurement differences in the added amounts of the detection reagents.
By means of prostaglandin E2 administration and increase in the intracellular cAMP, a lowering of the FRET signal occurs, which in the case of an antagonistic substance action increases again.
A further 20 min at room temperature later, the cell lysate is measured according to the manufacturer's instructions in a TR-FRET-suitable measuring apparatus (compare cAMP HTRF assay kit: Cisbio International 62AM6PEJ high range)
In the case of `CCn1c2ccccc2c2cc(-c3nc4cc(C(=O)O)ccc4n3CCS(C)(=O)=O)ccc21` [Example 136, 2-(9-Ethyl-9H-carbazol-3-yl)-1-[2-(methylsulphonyl)ethyl]-1H-benzimidazole-5-carboxylic acid], the pIC50 was 6.49.

For `CCn1c2ccccc2c2cc(-c3nc4cc(C(=O)O)ccc4n3CCCOC)ccc21` [Example 100, 2-(9-Ethyl-9H-carbazol-3-yl)-1-(3-methoxypropyl)-1H-benzimidazole-5-carboxylic acid], the pIC50 was 6.80.

`CCn1c2ccccc2c2cc(-c3nc4cc(C(=O)NS(=O)(=O)c5ccc(C)cc5)ccc4n3CCN(C)C)ccc21` [Example 75, 1-[2-(Dimethylamino)ethyl]-2-(9-ethyl-9H-carbazol-3-yl)-N-[(4-methylphenyl)sulphonyl]-1H-benzimidazole-5-carboxamide]: the pIC50 is 7.67.

As for `C=CCn1c(-c2ccc3c(c2)c2ccccc2n3CC)nc2cc(C(=O)O)ccc21` [Example 2, 1-Allyl-2-(9-ethyl-9H-carbazol-3-yl)-1H-benzimidazole-5-carboxylic acid], the pIC50 is 6.51. `CCn1c2ccccc2c2cc(-c3nc4cc(C(=O)NCC(F)(F)F)ccc4n3CC3CC3)ccc21` [Example 27, 1-(Cyclopropylmethyl)-2-(9-ethyl-9H-carbazol-3-yl)-N-(2,2,2-trifluoroethyl)-1H-benzimidazole-5-carboxamide]: the pIC50 was 6.93. As to `CCn1c2ccc(-c3nc4cc(C(=O)O)ccc4n3CC3CC3)cc2c2ccncc21` [Example 108, 1-(Cyclopropylmethyl)-2-(9-ethyl-9H-beta-carbolin-6-yl)-1H-benzimidazole-5-carboxylic acid], the pIC50 was 6.92. For `CCCn1c2ccccc2c2cc(-c3nc4cc(C(=O)O)ccc4n3CC3CC3)ccc21` [Example 120, 1-(Cyclopropylmethyl)-2-(9-propyl-9H-carbazol-3-yl)-1H-benzimidazole-5-carboxylic acid], the pIC50 was 7.20. The figure for `CCn1c2ccccc2c2cc(-c3nc4cc(-n5ccnn5)ccc4n3C)ccc21` [Example 128, 9-Ethyl-3-[1-methyl-5-(1H-1,2,3-triazol-1-yl)-1H-benzimidazole-2-yl]-9H-carbazole] is 6.95; for `CCn1c2ccccc2c2cc(-c3nc4cc(C(=O)NS(=O)(=O)c5ccccc5)ccc4n3CCOC)ccc21` [Example 50, 2-(9-Ethyl-9H-carbazol-3-yl)-1-(2-methoxyethyl)-N-(phenylsulphonyl)-1H-benzimidazole-5-carboxamide] it is 7.47. The figure for `CCn1c2ccccc2c2cc(-c3nc4cc(C(=O)NC)ccc4n3CCOC)ccc21` [Example 41, 2-(9-Ethyl-9H-carbazol-3-yl)-1-(2-methoxyethyl)-N-methyl-1H-benzimidazole-5-carboxamide] is 7.01; for `CCn1c2ccccc2c2cc(-c3nc4cc(C(=O)NS(=O)(=O)C5CC5)ccc4n3CCN(C)C)ccc21` [Example 74, N-(Cyclopropylsulphonyl)-1-[2-(dimethylamino)ethyl]-2-(9-ethyl-9H-carbazol-3-yl)-1H-benzimidazole-5-carboxamide] it is 7.06.

Turning to `CCn1c2ccccc2c2cc(-c3nc4cc(C(=O)NCC(F)(F)F)ccc4n3CCOC)ccc21` [Example 77, 2-(9-Ethyl-9H-carbazol-3-yl)-1-(2-methoxyethyl)-N-(2,2,2-trifluoroethyl)-1H-benzimidazole-5-carboxamide], the pIC50 is 7.31.

On to `CCn1c2ccccc2c2cc(-c3nc4cc(C(=O)NS(=O)(=O)c5cccc(Cl)c5)ccc4n3CCOC)ccc21` [Example 17, N-[(3-Chlorophenyl)sulphonyl]-2-(9-ethyl-9H-carbazol-3-yl)-1-(2-methoxyethyl)-1H-benzimidazole-5-carboxamide], for which the pIC50 was 7.83. As for `CCn1c2ccccc2c2cc(-c3nc4cc(C(=O)NS(=O)(=O)c5ccc(Cl)cc5)ccc4n3CCOC)ccc21` [Example 49, N-[(4-Chlorophenyl)sulphonyl]-2-(9-ethyl-9H-carbazol-3-yl)-1-(2-methoxyethyl)-1H-benzimidazole-5-carboxamide], the pIC50 is 7.21.
